ChEMBL document CHEMBL4219114, “Aralkyl selenoglycosides and related selenosugars in acetylated form activate protein phosphatase-1 and -2A” (Bioorg Med Chem, 2018)
Activity calls are given as the source filed them. The calls are words filed in the database; no cut-off is given here.

How the values were obtained:
Oryctolagus cuniculus [1] = species: Oryctolagus cuniculus; test: Activation of rabbit skeletal muscle PP1 catalytic subunit at 19 to 395 uM using [32P]MLC20 as substrate pretreated for 10 mins followed by substrate addition measured after 10 mins by scintillation counting method relative to control
Oryctolagus cuniculus [2] = species: Oryctolagus cuniculus; test: Activation of rabbit skeletal muscle PP2A catalytic subunit at 19 to 395 uM using [32P]MLC20 as substrate pretreated for 10 mins followed by substrate addition measured after 10 mins by scintillation counting method relative to control
HeLa [3] = test: Activation of PP1 catalytic subunit/PP2A catalytic subunit in human HeLa cells using [32P]MLC20 as substrate pretreated for 1 hr followed by substrate addition measured after 30 secs by scintillation counting method; type: cell-based
HeLa [4] = test: Cytotoxicity against human HeLa cells assessed as reduction in cell viability at >200 uM after 24 hrs by Alamar blue assay; type: functional, cell-based
[5] = Inhibition of rabbit skeletal muscle PP1 catalytic subunit at 19 to 395 uM using [32P]MLC20 as substrate pretreated for 10 mins followed by substrate addition measured after 10 mins by scintillation counting method; design: species or system Oryctolagus cuniculus
[6] = Inhibition of rabbit skeletal muscle PP2A catalytic subunit at 19 to 395 uM using [32P]MLC20 as substrate pretreated for 10 mins followed by substrate addition measured after 10 mins by scintillation counting method relative to control; design: species or system Oryctolagus cuniculus
[7] = Activation of rabbit skeletal muscle PP1 catalytic subunit using [32P]MLC20 as substrate pretreated for 10 mins followed by substrate addition measured after 10 mins by scintillation counting method relative to control; design: species or system Oryctolagus cuniculus
[8] = Activation of rabbit skeletal muscle PP2A catalytic subunit using [32P]MLC20 as substrate pretreated for 10 mins followed by substrate addition measured after 10 mins by scintillation counting method relative to control; design: species or system Oryctolagus cuniculus
Oryctolagus cuniculus [9] = species: Oryctolagus cuniculus; test: Activation of rabbit skeletal muscle PP1 catalytic subunit at 395 uM using [32P]MLC20 as substrate pretreated for 10 mins followed by substrate addition measured after 10 mins in presence of 10 to 25 uM MYPT1 (23 to 38 residues) peptide by scintillation counting method
Oryctolagus cuniculus [10] = species: Oryctolagus cuniculus; test: Activation of rabbit skeletal muscle PP2A catalytic subunit at 395 uM using [32P]MLC20 as substrate pretreated for 10 mins followed by substrate addition measured after 10 mins in presence of 10 uM MYPT1 (23 to 38 residues) peptide by scintillation counting method relative to control
[11] = molecular target: Serine/threonine-protein phosphatase PP1-beta catalytic subunit (Homo sapiens) (UniProt P62140); test: Binding affinity to full length recombinant human N-terminal His6-tagged PP1cdelta expressed in Escherichia coli M15 assessed as inhibition of protein interaction with GST-tagged MYPT1 at 10 to 50 uM by surface plasmon resonance method
HeLa [12] = test: Activation of PP1 catalytic subunit/PP2A catalytic subunit in human HeLa cells at >100 uM using [32P]MLC20 as substrate pretreated for 1 hr followed by substrate addition measured after 30 secs by scintillation counting method; type: cell-based
HeLa [13] = test: Activation of PP1 catalytic subunit/PP2A catalytic subunit in human HeLa cells at 395 uM using [32P]MLC20 as substrate pretreated for 1 hr followed by substrate addition measured after 30 secs by scintillation counting method; type: cell-based

Chain of Serine/threonine-protein phosphatase PP1-beta catalytic subunit (Homo sapiens) (P62140 whole entry): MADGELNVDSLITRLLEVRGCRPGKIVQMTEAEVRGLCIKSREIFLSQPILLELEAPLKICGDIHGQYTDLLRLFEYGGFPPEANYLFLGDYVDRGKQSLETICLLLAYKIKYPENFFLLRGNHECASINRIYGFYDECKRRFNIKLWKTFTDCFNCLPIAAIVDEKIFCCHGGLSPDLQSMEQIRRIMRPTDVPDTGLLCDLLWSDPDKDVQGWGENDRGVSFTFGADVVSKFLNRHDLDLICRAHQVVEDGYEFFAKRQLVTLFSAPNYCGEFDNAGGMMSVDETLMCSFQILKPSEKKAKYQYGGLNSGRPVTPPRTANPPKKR

EC50 [7] [µM]	EC50 [8] [µM]	SMILES	Activity (Oryctolagus cuniculus [1])	Activity (Oryctolagus cuniculus [2])	inhibition (INH) [5]	inhibition (INH) [6]	other results
		OC[C@H]1O[C@@H]([Se]Cc2ccccc2C(F)(F)F)[C@H](O)[C@@H](O)[C@@H]1O	inactive	inactive			Activity (HeLa [3]): inactive; Activity (HeLa [4]): Active
		CC(=O)OC[C@H]1O[C@@H]([Se]C(=O)c2ccc(Cl)cc2)[C@H](OC(C)=O)[C@@H](OC(C)=O)[C@@H]1OC(C)=O	Active	Active	Active	Active	
		CC(=O)OC[C@H]1O[C@@H]([Se]C(=O)c2ccc(C)cc2)[C@H](OC(C)=O)[C@@H](OC(C)=O)[C@@H]1OC(C)=O	Active	Active	Active	Active	
		CC(=O)OC[C@H]1O[C@@H]([Se]c2ccc([N+](=O)[O-])cn2)[C@H](OC(C)=O)[C@@H](OC(C)=O)[C@@H]1OC(C)=O	inactive	inactive	Active	Active	
		CC(=O)OC[C@H]1O[C@@H]([Se]Cc2ccc([N+](=O)[O-])cc2)[C@H](OC(C)=O)[C@@H](OC(C)=O)[C@@H]1OC(C)=O	inactive	inactive	Active		
233	83.5	CC(=O)OC[C@H]1O[C@@H]([Se]Cc2ccccc2C(F)(F)F)[C@H](OC(C)=O)[C@@H](OC(C)=O)[C@@H]1OC(C)=O	Active	Active			Activity (Oryctolagus cuniculus [9]): inactive; Activity (Oryctolagus cuniculus [10]): Active; Activity [11]: Active; Activity (HeLa [12]): Active; Activity (HeLa [4]): Active
		CC(=O)N[C@@H]1[C@@H](OC(C)=O)[C@H](OC(C)=O)[C@@H](COC(C)=O)O[C@H]1[Se]C(=O)c1ccc(C)cc1	Active	Active	Active	Active	
291	84.8	CC(=O)OC[C@H]1O[C@@H]([Se]c2ccccc2)[C@H](OC(C)=O)[C@@H](OC(C)=O)[C@@H]1OC(C)=O					fold change (FC) (Oryctolagus cuniculus [1]): 4; fold change (FC) (Oryctolagus cuniculus [2]): 4
108	119	CC(=O)OC[C@H]1O[C@@H]([Se]Cc2ccc(Br)cc2)[C@H](OC(C)=O)[C@@H](OC(C)=O)[C@@H]1OC(C)=O	Active	Active			Activity (Oryctolagus cuniculus [9]): inactive; Activity (Oryctolagus cuniculus [10]): Active; Activity [11]: Active; Activity (HeLa [13]): Active
		CC(=O)OC[C@H]1O[C@@H]([Se]Cc2ccccc2)[C@H](OC(C)=O)[C@@H](OC(C)=O)[C@@H]1OC(C)=O	Active	Active			Activity (HeLa [4]): Active
171	104	CC(=O)OC[C@H]1O[C@@H]([Se]CCc2ccccc2)[C@H](OC(C)=O)[C@@H](OC(C)=O)[C@@H]1OC(C)=O					fold change (FC) (Oryctolagus cuniculus [1]): 4; fold change (FC) (Oryctolagus cuniculus [2]): 4
		CC(=O)N[C@@H]1[C@@H](OC(C)=O)[C@H](OC(C)=O)[C@@H](COC(C)=O)O[C@H]1[Se]c1ccc([N+](=O)[O-])cn1	inactive	inactive	Active	Active	
		CC(=O)OC[C@H]1O[C@@H]([Se]c2ccc([N+](=O)[O-])cc2[N+](=O)[O-])[C@H](OC(C)=O)[C@@H](OC(C)=O)[C@@H]1OC(C)=O	inactive	inactive	Active	Active	
		CC(=O)OC[C@H]1O[C@@H]([Se]C(=O)c2ccccc2)[C@H](OC(C)=O)[C@@H](OC(C)=O)[C@@H]1OC(C)=O		inactive	Active	Active	fold change (FC) (Oryctolagus cuniculus [1]): 2
		OC[C@H]1O[C@@H]([Se]Cc2ccccc2)[C@H](O)[C@@H](O)[C@@H]1O	inactive	inactive			Activity (HeLa [3]): inactive; Activity (HeLa [4]): Active
222	119	COc1ccc(C[Se][C@@H]2O[C@H](COC(C)=O)[C@@H](OC(C)=O)[C@H](OC(C)=O)[C@H]2OC(C)=O)cc1	Active	Active			
